{"source": "EPA's ToxValDB 9.5", "key": {"Rattus norvegicus [1]": {"tested_on": "Rattus norvegicus"}, "Rattus norvegicus [2]": {"tested_on": "Rattus norvegicus", "details": "for LEL: uterotrophic, duration: 3 days, Active"}, "[3]": {"details": "subchronic, duration: 13 weeks, oral, diet, F, Crl:CD(SD) BR, Blood: Hematocrit (HCT) + Blood: Mean Corpuscular Volume (MCV) + Brain: Brain Weight, Absolute + Kidney: Urea Nitrogen + Liver: Cholesterol…"}, "[4]": {"details": "subchronic, duration: 13 weeks, oral, diet, F, Crl:CD(SD) BR, Blood: Red Blood Cell (RBC) + Kidney: Kidney Weight, Relative + Liver: Hepatocellular Hypertrophy, Centrilobular + Liver: Liver Weight, …"}, "[5]": {"details": "subchronic, duration: 13 weeks, oral, diet, F, Sprague-Dawley, Endocrine: Adrenal: Adrenal Gland Weight, Absolute + Endocrine: Adrenal: Adrenal Gland Weight, Relative to Brain + Hepatic: Liver: Liver …"}, "[6]": {"details": "subchronic, duration: 13 weeks, oral, diet, F, Sprague-Dawley, Hepatic: Liver: Total Bilirubin (TBILI) + Immune: Blood: Monocytes %"}, "[7]": {"details": "subchronic, duration: 13 weeks, oral, diet, M, Crl:CD(SD) BR, Blood: Calcium (CA), Blood + Blood: Globulin (G), Blood + Brain: Brain Weight, Relative + Kidney: Kidney Weight, Relative + Liver: …"}, "[8]": {"details": "subchronic, duration: 13 weeks, oral, diet, M, Crl:CD(SD) BR, Blood: Glucose (GLU), Blood + Blood: Hematocrit (HCT) + Kidney: Kidney Weight, Absolute + Kidney: Kidney Weight, Relative to Brain + Kidney…"}, "[9]": {"details": "subchronic, duration: 13 weeks, oral, diet, M, Sprague-Dawley, Cardiovascular: Heart: Heart, Degeneration/Necrosis + Endocrine: Adrenal: Adrenal Gland Weight, Absolute + Endocrine: Thyroid/Parathyroid: …"}, "[10]": {"details": "subchronic, duration: 13 weeks, oral, diet, M, Sprague-Dawley, Endocrine: Adrenal: Adrenal Gland Weight, Relative + Endocrine: Adrenal: Adrenal Gland Weight, Relative to Brain + Endocrine: Adrenal: …"}, "[11]": {"details": "subchronic, duration: 13 weeks, oral, diet, M, Sprague-Dawley, Immune: Blood: Basophils"}}, "note": "Values joined by “and” are separate entries in the source; they are usually repeats but may differ in a detail not shown here. Equal values may be shown once."}
{"compound": "CN(CCO)S(=O)(=O)C(F)(F)C(F)(F)C(F)(F)C(F)(F)C(F)(F)C(F)(F)C(F)(F)C(F)(F)F", "note": "[N-Methyl-N-(2-hydroxyethyl)perfluorooctanesulfonamide]", "values": [{"measurement": "NEL", "setting": "Rattus norvegicus [1]; chronic, duration: 14 weeks, oral, diet, M/F, Crl:CD(SD) BR, Eye: Ophthalmology, Unspecified + Whole Body: Clinical Observations", "value": "7.8 mg/kg-day and 7.27 mg/kg-day"}, {"measurement": "NEL", "setting": "Rattus norvegicus [1]; subchronic, duration: 13 weeks, oral, diet, F, Crl:CD(SD) BR, Adrenal: Adrenal Cortex Histopathology + Adrenal: Adrenal Gland Weight, Absolute + Adrenal: Adrenal Gland Weight, Relative + Adrenal: …", "value": "9.6 mg/kg-day and 7.7 mg/kg-day"}, {"measurement": "LEL", "setting": "Rattus norvegicus [1]; [3]", "value": "9.6 mg/kg-day and 7.7 mg/kg-day"}, {"measurement": "NEL", "setting": "Rattus norvegicus [1]; [3]", "value": "2.88 mg/kg-day and 2.59 mg/kg-day"}, {"measurement": "LEL", "setting": "Rattus norvegicus [1]; [4]", "value": "2.88 mg/kg-day and 2.59 mg/kg-day"}, {"measurement": "NEL", "setting": "Rattus norvegicus [1]; [4]", "value": "0.288 mg/kg-day and 0.24 mg/kg-day"}, {"measurement": "LEL", "setting": "Rattus norvegicus [1]; subchronic, duration: 13 weeks, oral, diet, F, Crl:CD(SD) BR, Brain: Brain Weight, Relative + Whole Body: Body Weight Change", "value": "0.288 mg/kg-day and 0.24 mg/kg-day"}, {"measurement": "NOAEL", "setting": "Rattus norvegicus [1]; subchronic, duration: 13 weeks, oral, diet, F, Sprague-Dawley, Cardiovascular: Aorta: Aorta Histopathology + Cardiovascular: Heart: Heart, Degeneration/Necrosis + Endocrine: Adrenal: Adrenal Cortex …", "value": 0.203, "unit": "mg/kg-day"}, {"measurement": "LOAEL", "setting": "Rattus norvegicus [1]; [5]", "value": 6.84, "unit": "mg/kg-day"}, {"measurement": "NOAEL", "setting": "Rattus norvegicus [1]; [5]", "value": 2.04, "unit": "mg/kg-day"}, {"measurement": "NOAEL", "setting": "Rattus norvegicus [1]; subchronic, duration: 13 weeks, oral, diet, F, Sprague-Dawley, Endocrine: Adrenal: Adrenal Medulla Histopathology + Endocrine: Thyroid/Parathyroid: Thyroid/Parathyroid Gland Weight, Relative to Brain + …", "value": 6.84, "unit": "mg/kg-day"}, {"measurement": "LOAEL", "setting": "Rattus norvegicus [1]; subchronic, duration: 13 weeks, oral, diet, F, Sprague-Dawley, General Toxicity: Whole Body: Body Weight Change + General Toxicity: Whole Body: Body Weight, Absolute + Hematologic: Blood: Inorganic …", "value": 0.203, "unit": "mg/kg-day"}, {"measurement": "LOAEL", "setting": "Rattus norvegicus [1]; [6]", "value": 19.2, "unit": "mg/kg-day"}, {"measurement": "NOAEL", "setting": "Rattus norvegicus [1]; [6]", "value": 1.92, "unit": "mg/kg-day"}, {"measurement": "NEL", "setting": "Rattus norvegicus [1]; subchronic, duration: 13 weeks, oral, diet, M, Crl:CD(SD) BR, Adrenal: Adrenal Cortex Histopathology + Adrenal: Adrenal Gland Weight, Absolute + Adrenal: Adrenal Gland Weight, Relative + Adrenal: …", "value": "6.84 mg/kg-day and 9.6 mg/kg-day"}, {"measurement": "LEL", "setting": "Rattus norvegicus [1]; [7]", "value": "2.04 mg/kg-day and 2.88 mg/kg-day"}, {"measurement": "NEL", "setting": "Rattus norvegicus [1]; [7]", "value": "0.203 mg/kg-day and 0.288 mg/kg-day"}, {"measurement": "LEL", "setting": "Rattus norvegicus [1]; [8]", "value": "6.84 mg/kg-day and 9.6 mg/kg-day"}, {"measurement": "NEL", "setting": "Rattus norvegicus [1]; [8]", "value": "2.04 mg/kg-day and 2.88 mg/kg-day"}, {"measurement": "LEL", "setting": "Rattus norvegicus [1]; subchronic, duration: 13 weeks, oral, diet, M, Crl:CD(SD) BR, Whole Body: Body Weight Change", "value": "0.203 mg/kg-day and 0.288 mg/kg-day"}, {"measurement": "LOAEL", "setting": "Rattus norvegicus [1]; subchronic, duration: 13 weeks, oral, diet, M, Sprague-Dawley, Cardiovascular: Aorta: Aorta Histopathology + Cardiovascular: Heart: Heart, Degeneration/Necrosis + Endocrine: Adrenal: Adrenal Cortex …", "value": 0.203, "unit": "mg/kg-day"}, {"measurement": "NOAEL", "setting": "Rattus norvegicus [1]; subchronic, duration: 13 weeks, oral, diet, M, Sprague-Dawley, Cardiovascular: Aorta: Aorta Histopathology + Endocrine: Adrenal: Adrenal Cortex Histopathology + Endocrine: Pituitary: Pituitary Gland …", "value": 6.84, "unit": "mg/kg-day"}, {"measurement": "LOAEL", "setting": "Rattus norvegicus [1]; [9]", "value": 6.84, "unit": "mg/kg-day"}, {"measurement": "NOAEL", "setting": "Rattus norvegicus [1]; [9]", "value": 2.04, "unit": "mg/kg-day"}, {"measurement": "LOAEL", "setting": "Rattus norvegicus [1]; [10]", "value": 2.04, "unit": "mg/kg-day"}, {"measurement": "NOAEL", "setting": "Rattus norvegicus [1]; [10]", "value": 0.203, "unit": "mg/kg-day"}, {"measurement": "LOAEL", "setting": "Rattus norvegicus [1]; subchronic, duration: 13 weeks, oral, diet, M, Sprague-Dawley, Hematologic: Blood: Hematocrit (HCT) + Hematologic: Blood: Mean Corpuscular Hemoglobin Concentration (MCHC) + Hepatic: Liver: Aspartate …", "value": 0.203, "unit": "mg/kg-day"}, {"measurement": "LOAEL", "setting": "Rattus norvegicus [1]; [11]", "value": 19.2, "unit": "mg/kg-day"}, {"measurement": "NOAEL", "setting": "Rattus norvegicus [1]; [11]", "value": 1.92, "unit": "mg/kg-day"}]}
{"compound": "O=[N+]([O-])c1ccc(Oc2ccc(Cl)cc2Cl)cc1", "note": "[Nitrofen]", "values": [{"measurement": "NOEL", "setting": "Rattus norvegicus [1]; chronic, oral, diet, M, Wistar, heart: Heart weight + spleen: Spleen weight", "value": 116, "unit": "mg/kg-day"}, {"measurement": "LOEL", "setting": "Rattus norvegicus [1]; chronic, oral, diet, M, Wistar, kidney: Kidney weight + liver: Liver weight + testes: Testes weight", "value": 116, "unit": "mg/kg-day"}, {"measurement": "NOEL", "setting": "Rattus norvegicus [1]; chronic, oral, gavage, F, Wistar, heart: Heart weight + kidney: Kidney weight + liver: Liver weight", "value": 127, "unit": "mg/kg-day"}, {"measurement": "LOEL", "setting": "Rattus norvegicus [1]; chronic, oral, gavage, F, Wistar, spleen: Spleen weight", "value": 127, "unit": "mg/kg-day"}, {"measurement": "LOEL", "setting": "Rattus norvegicus [1]; subchronic, oral, diet, F, Wistar, heart: Heart weight + kidney: Kidney weight", "value": 1280, "unit": "mg/kg-day"}, {"measurement": "LOEL", "setting": "Rattus norvegicus [1]; subchronic, oral, diet, F, Wistar, liver: Liver weight", "value": 10, "unit": "mg/kg-day"}, {"measurement": "NOEL", "setting": "Rattus norvegicus [1]; subchronic, oral, diet, F, Wistar, spleen: Spleen weight", "value": 1280, "unit": "mg/kg-day"}, {"measurement": "LOEL", "setting": "Rattus norvegicus [1]; subchronic, oral, diet, M, Sprague-Dawley, Albumin + Cholesterol + Globulin + Glucose + Terminal body weight + Total protein", "value": 186, "unit": "mg/kg-day"}, {"measurement": "LOEL", "setting": "Rattus norvegicus [1]; subchronic, oral, diet, M, Sprague-Dawley, liver: Relative liver weight + Relative kidney weight + testes: Relative Testes weight", "value": 37, "unit": "mg/kg-day"}, {"measurement": "LOEL", "setting": "Rattus norvegicus [1]; subchronic, oral, diet, M, Wistar, heart: Heart weight + spleen: Spleen weight", "value": 1150, "unit": "mg/kg-day"}, {"measurement": "LOEL", "setting": "Rattus norvegicus [1]; subchronic, oral, diet, M, Wistar, kidney: Kidney Weight + testes: Testes weight", "value": 230, "unit": "mg/kg-day"}, {"measurement": "LOEL", "setting": "Rattus norvegicus [1]; subchronic, oral, diet, M, Wistar, liver: Liver weight", "value": 46, "unit": "mg/kg-day"}]}
{"compound": "CCCCC(CC)CN1C(=O)C2C3C=CC(C3)C2C1=O", "note": "(stereo not drawn) [Octylbicycloheptenedicarboximide]", "values": [{"measurement": "NOEL", "setting": "Rattus norvegicus [2]; Hershberger, duration: 10 days, oral, gavage, Sprague-Dawley, inactive + Negative + Negative + neither + negative", "value": 700, "unit": "mg/kg-day"}]}
{"compound": "FC(F)(F)N1C(F)(F)C(F)(F)OC(F)(F)C1(F)F", "note": "[Perfluoro(N-methylmorpholine)]", "values": [{"measurement": "NEL", "setting": "Rattus norvegicus [1]; subchronic, duration: 13 weeks, inhalation, M/F, Sprague-Dawley, Blood: Hematology, Unspecified + Eye: Ophthalmology, Unspecified + Multi-organ: Clinical Chemistry, Unspecified + Multi-organ: …", "value": 607000, "unit": "mg/m3"}, {"measurement": "NEL", "setting": "Rattus norvegicus [1]; subchronic, duration: 30 days, oral, gavage, M/F, Crl:CD(SD) BR, Blood: Hematology, Unspecified + Blood: Red Cell Morphology + Multi-organ: Clinical Chemistry, Unspecified + Multi-organ: Histopathology, …", "value": 2000, "unit": "mg/kg-day"}]}
{"compound": "Cl.O=C(c1ccc(OCCN2CCCCC2)cc1)c1c(-c2ccc(O)cc2)sc2cc(O)ccc12", "note": "[Raloxifene hydrochloride]", "values": [{"measurement": "LEL", "setting": "Rattus norvegicus [2]; injection, subcutaneous", "value": 0.5, "unit": "mg/kg-day"}]}
{"compound": "C[C@H]1CCC[C@@H](O)CCCCCc2cc(O)cc(O)c2C(=O)O1", "note": "[Taleranol]", "values": [{"measurement": "LEL", "setting": "Rattus norvegicus [2]; oral", "value": 0.06, "unit": "mg/day"}]}
{"compound": "CCCCCCC(=O)O[C@H]1CC[C@H]2[C@@H]3CCC4=CC(=O)CC[C@]4(C)[C@H]3CC[C@]12C", "note": "[Testosterone enanthate]", "values": [{"measurement": "LOEL", "setting": "Rattus norvegicus [2]; Hershberger, duration: 10 days, oral, gavage, Sprague-Dawley, active + Androgenic + Negative + androgenic", "value": 50, "unit": "mg/kg-day"}]}
{"compound": "C[C@H]1CCC[C@@H](O)CCC/C=C/c2cc(O)cc(O)c2C(=O)O1", "note": "[beta-Zearalenol]", "values": [{"measurement": "LEL", "setting": "Rattus norvegicus [2]; oral", "value": 0.8, "unit": "mg/day"}]}
